Data set [1] concerns cyclin A, cyclin B, CDK2, CDK4, p21(waf1/cip1), p27(kip1), Bax, Bcl-2, PARP, Caspase 3 in PC3 cells. The experiment in a line: Western blot of cell cycle and apoptosis proteins, PC3. In kind it is cell-based, human. As to the method:
(§1) Protein lysates from the desmopressin monotherapy dose response study (100 pM-1 uM), desmopressin monotherapy time point study (1 uM, 0-48 h) and combination study and concentrated media employed for Western blot analysis, were prepared as previously described.^14 The proteins were subjected to 10-12% SDS-PAGE and electrophoretically transferred onto a PVDF membrane at 100V/300 mA overnight using a semidry transfer apparatus (Bio-Rad Laboratories, Hercules, Calif.). After activation in methanol (100%), blots were incubated for 60 mins at room temperature in TBST containing 5% skimmed milk. After washing, the membranes were incubated with primary antibodies against Bax, bcl-2, p21 (waf1/cip1), p27 (kip1), cdk2, cdk4, uPA, uPAR, MMP-2 and MMP-9 (1:100-200, Santacruz Biotechnology, Santacruz, Calif., USA). After incubation with respective primary antibody, the membrane was washed with TBST 3 times for 5 min, then incubated with appropriate secondary antibody for 1 h at room temperature and washed with TBST 3 times for 5 min. Protein detection was performed with enhanced chemiluminescence Western blotting regents (Amersham Pharmacia Biotech, Buckinghamshire, UK).
(A western blot detects proteins with antibodies after separation by electrophoresis.)

Data set [2] concerns PC3 cells. Description: Transwell cell migration assay, PC3. The format is cell-based, human. Particulars: PC3, 24 h; desmopressin 1 nM and 1 μM; 5 nM docetaxel in combination. As for the experimental part: (§2) The migration of cells was measured using transwell insert plates (BD Biosciences, Bedford Mass.) according to the manufacture's protocol. Cells were subjected to 24 h of serum deprivation in DMEM/F12 supplemented with FBS. PC3 (5×10^4) cells were plated onto filters in 8.0-μm transwell insert plates and treated with these compounds, desmopressin (1 nM, 1 μM) and 5 nM docetaxel, in serum-free medium. The lower chamber also contained 10% FBS. Cells were allowed to migrate for 24 h. After the treatment, cells remaining on the top surfaces of the filter were removed using cotton swabs. The migrated cells that are attached to the lower surface of the filter were fixed in 4% formaldehyde at room temperature for 30 min, and then stained with crystal violet for 20 min. The migrated cells from random fields were chosen and counted using the computer-based microscopy imaging system. For the invasion assay, the same procedures were performed as described in the migration assay, except that the cells were plated onto 24-well matrigel-coated transwell plates (BD Biosciences, Bedford Mass.). The experiments were repeated 2 times in duplicates and statistical analysis performed.

In data set [3] the test system is pro-uPA, active uPA, uPAR, MMP-2 and MMP-9 in PC3 cells. The experiment in a line: Western blot of uPA-MMP pathway, PC3. The format is cell-based, human. As to the method:
as §1

The test system of data set [4] is DU145 cells. Description: DU145 xenograft model in athymic nude mice. The settings on record: day 55 post inoculation. The format is in vivo. As to the method:
6-week old male athymic nude mice (Charles river, QC, Canada) were used to evaluate the effect of combination therapy on DU145 tumor growth in vivo. […] Following 2 weeks of housing, 1×10^6 DU145 cells per animal in 100 μL matrigel solution (BD Bioscience, CA, USA) were inoculated subcutaneously, according to procedure described by Fridman et al (51). After 14 days following inoculation, body weight and tumor size were measured, and mice were randomly assigned to different treatment groups. Groups included control (sham treatments), DTX (5 mg/kg body weight) intraperitoneally, Desmopressin (2 μg/ml/body weight) intravenously 30 minutes prior to IP injection and 24 hours later or combination therapy (n=4 per group). Each group received treatment once every other week for a total of 3 treatments. Animal weight and tumor measurements were assessed regularly. Tumor size was calculated by length (L) and width (W) measured with caliper according to the following formula: V=(L×W2) ( […] /6).
Two weeks following the last treatment, mice were euthanized; tumors were excised, measured directly with caliper and sent for histological analysis.
Statistics: Tumor volume calculated during the treatment period were compared using repeated measures one-way ANOVA test (SPSS©). Final tumor volume and body weight measurements were compared separately using one-way ANOVA test.

Data set [5] deals with PC3 cells. Particulars: for body weight: during each study. As to the method:
The mice were housed and maintained in laminar flow cabinets under specific pathogen-free conditions in facilities approved by the University of Toronto Animal Research Ethics Board and in accordance with their regulations and standards by the Canadian Council on Animal Care (CCAC). Cells (1×10^6 PC3 cells with 100 μl martrigel solution (BD Biosciences, CA, USA)) were inoculated subcutaneously (sc) into 6-8 week-old male nude mice (Harlan Sprague Dawley, Inc.). After 14 days, the developing tumors were measured and mice randomly assigned to different treatment groups. Tumor volumes were determined by measurement of tumor length (L) and width (W) with a caliper and calculated according to the formula: V=(L×W^2)(π/6) twice a week. A tumor volume in the range of 100 mm^3 was required for a given mouse to be included. Using the xenograft model, tumor growth was determined for the control and each treatment mice. Mice were randomized into four groups; control (n=15), desmopressin alone (n=15), docetaxel alone (n=10) and desmopressin in combination with docetaxel (n=10). Control animals received only the saline vehicle. Desmopressin from Ferring Pharmaceuticals (Ferring Inc, CA, USA) was administrated in 2 doses, 0 h and 24 h. Mice received desmopressin intravenously in the saline at a final dose of 2 μg/ml/body weight (50 ng/0.3 ml saline dose). Mice were administrated docetaxel at a dose of 5 mg/kg intravenously as 3 weekly cycles. Desmopressin was administrated in 2 doses, 30 min prior to and 24 h after the administration of docetaxel. The animals that were administrated docetaxel or desmopressin in combination with docetaxel were sacrificed 35 days after cell inoculation. Control and desmopressin mice were monitored until tumor volume was approximately 1500 mm3 or day 49, whichever earlier, in order to evaluate antitumor effect of desmopressin in vivo study.
All experiments were performed in triplicates. The date represented mean±the standard error of the mean. Statistical analysis was done by Student's t test at a significance level of P<0.05. Analyses of the in vivo results were performed using either Student's t-testing or repeated measures one-way ANOVA techniques.

The subject of data set [6] is DU145 cells. Description: Wound healing assay, DU145. The format is cell-based. The settings on record: for effect on migration (wound closure) compared to control: 10 nM DTX alone, Desmopressin alone. As to the method: The motility inhibitory potential of desmopressin alone and/or in combination with docetaxel was accessed by wound healing assay according to previously described protocol^49, 50. DU145 cell were plated on 24-well plates at a concentration of 50,000 cells per well and were allowed to grow until they reached 90-100% confluence. After incubating the cells with 1 mg/L Mitomycin C (Sigma©) for 1 hour, a vertical scratch across each well was created; floating cells removed and cell media or media with treatment solutions were added. Images were obtained at zero-time point and after 24 hours of treatment. A computer-based microscopy imaging system with X200 magnification (Axiovision©) was used to measure wound healing of each well. Each experiment was carried out in duplicates and repeated three times

The subject of data set [7] is PC3 cells. The experiment in a line: Matrigel invasion assay, PC3. Particulars: 5 nM docetaxel, desmopressin 1 nM and 1 uM. In kind it is cell-based, human. As for the experimental part: as §2
Data set [8] has as its system PC3 cells. Description: Flow cytometry cell cycle analysis (BrdU labeling), PC3. The format is cell-based, human. As to the method:
To analyze cell cycle profiles, cells were plated at a density of 1×10^6 per 10 cm dish. Asynchronously growing cells were pulse labeled with […] bromodeoxyuridine (BrdU) for 2 h with or without prior treatment of the antioxidants at the end of 24 h. Cells were then harvested, fixed with 70% ethanol, treated with 0.1% HCl and heated for 10 min at 90° C. to expose the labeled DNA. Cells were stained with anti-BrdU-conjugated FITC (Becton-Dickinson) and counterstained with propidium iodide, and then allowed to incubate for 30 mins on ice. Samples were filtered through a nylon mesh. Cell cycle analysis was carried out on the FACS Calibur flow cytometer using the Cell Quest Pro software package (Becton-Dickinson, CA, USA). The experiments were repeated 3 times in triplicates and statistical analysis performed as mentioned below.
For orientation: In flow cytometry, cells or beads pass a laser one at a time.

Data set [9] has as its system PC3 cells. Description: MTS cell proliferation assay, PC3. In kind it is cell-based, human. The settings on record: PC3, 72 h; docetaxel 0-100 nM; desmopressin 1 nM-1 μM; combination desmopressin (1 nM, 1 μM) and 5 nM docetaxel. As to the method:
PC3 human prostate carcinoma cells were obtained from the American Type Culture Collection (Rockville, Md., USA). Cells were cultured in DMEM/F12 medium (Invitrogen, ON, Canada) with 10% fetal bovine serum (FBS; Gibco, NY, USA), 100 IU/ml penicillin, 100 μg/ml streptomycin and 0.3 mg/ml 1-glutamine, and maintained at 37° C. in a humidified atmosphere of 5% CO2 in air. Cells were grown to 80% confluence in 10-cm tissue culture plates.
Cell proliferation was determined by MTS assay as previously described.^14 Cells (5×10^3/well) were plated using 96 well plates. After cultivation for 24 h, a range of concentration of desmopressin (100 pM-1 μM) and/or Docetaxel (1 nM-100 nM) were added and culture continued for up to 72 h. Cell viability was assessed by incubation with MTS for 2 hours and resulting absorbance measured at 595 nm using an ELISA plate reader. In the combination studies, varying dose of each agents were tested. The experiments were repeated 3 times in triplicates and statistical analysis performed.
On the technique in general: Tetrazolium assays rely on reduction of a dye to a coloured formazan, in cell work by metabolically active cells.

The mark [10] stands for this setting: dose response study 100 pM-1 uM.

The text below walks through data of patent US10500248B2, “Method for treating cancer” (SUNNYBROOK RESEARCH INSTITUTE, priority 2015, dated 2019).

The structures appear in SMILES notation. Where two headings read alike, the source gives them in different places.

In the case of `NC(=O)CC[C@@H]1NC(=O)[C@H](Cc2ccccc2)NC(=O)[C@H](Cc2ccc(O)cc2)NC(=O)CCSSC[C@@H](C(=O)N2CCC[C@H]2C(=O)N[C@H](CCCN=C(N)N)C(=O)NCC(N)=O)NC(=O)[C@H](CC(N)=O)NC1=O` [desmopressin, 1-desamino-8-D-arginine vasopressin], in [1], the “expression of (total) Caspase 3” value is reported as “did not reduce the expression”, the “expression of PARP” value is listed as “did not reduce the expression” and the “expression of bcl-2” value is given as “did not reduce the expression”. In addition, in the data set with PC3 cells [2], the “cell migration, transwell plates” value is reported as “significantly inhibited cell migration”. In addition, in data set [3] (setting [10]), the “expression of MMP-2” value was “reduced in a dose dependent manner”, the “expression of MMP-9” value was “reduced in a dose dependent manner”, the “expression of active uPA” value is “reduced in a dose dependent manner” and the “expression of precursor pro-uPA” value was “reduced in a dose dependent manner”. In data set [3] (setting [10]), the “expression of uPAR” value is “unaltered”. In data set [3] (time point study, 1 μM, 0-48 h), the “expression of MMP-2” value was “reduced in a time dependent manner”, the “expression of MMP-9” value is “reduced in a time dependent manner”, the “expression of uPA” value is “reduced in a time dependent manner” and the “expression of uPAR” value is on record as “not altered”. Moreover, the “average tumor size, final direct measurement of excised tumors” value with DU145 cells [4] stood at 1597±681 mm3. Also, the mean tumor volume in the data set with PC3 cells [5] (PC3 xenograft, nude mice, day 35 post tumor inoculation, desmopressin 2 μg/ml/body weight i.v.) is listed as 642 mm3. For the same compound, in the data set on PC3 cells [5] (PC3 xenograft, nude mice), the body weight result is reported as “consistently maintained their body weight”. Also, in the data set with PC3 cells [5] (PC3 xenograft, nude mice, intravenous injection), the tolerability of treatment result is “well tolerated”. For the same compound, in the data set with PC3 cells [5] (PC3 xenograft, nude mice, docetaxel 5 mg/kg i.v., desmopressin 2 μg/ml/body weight i.v.), the “tumor growth / tumor size versus control (and docetaxel alone)” value is “significantly slower rate of tumor development”. Also, the “effect on migration (wound closure) compared to control” value in the data set on DU145 cells [6] (DU145, 24 hours) was “no statistical significant effect”. Also, the “cell invasion, matrigel invasion assay” value in the data set with PC3 cells [7] is reported as “significantly inhibition of cell invasion”. Also, in the data set with PC3 cells [8] (monotherapy), the cell cycle distribution result is recorded as “did not alter cell cycle distribution”. Moreover, the “cell proliferation / cell viability (MTS), relative to untreated control cells” value in the data set with PC3 cells [9] was “significantly reduced cell proliferation”.
As for `CC(=O)O[C@@]12CO[C@@H]1C[C@H](O)[C@@]1(C)C(=O)[C@H](O)C3=C(C)[C@@H](OC(=O)[C@H](O)[C@@H](NC(=O)OC(C)(C)C)c4ccccc4)C[C@@](O)([C@@H](OC(=O)c4ccccc4)[C@H]21)C3(C)C` [docetaxel], the “average tumor size, final direct measurement of excised tumors” value in the data set with DU145 cells [4] was 1330±550 mm3. In addition, the body weight entry with PC3 cells [5] (PC3 xenograft, nude mice) is “consistently maintained their body weight”. In addition, the tolerability of treatment result with PC3 cells [5] (mouse, in vivo, iv) was “well tolerated”. In addition, in the data set on DU145 cells [6] (DU145, 24 hours), the “effect on migration (wound closure) compared to control” value is listed as “migration inhibitory effect”. In the data set with DU145 cells [6] (DU145, 24 hours, DTX 10 nM, alone or combined with 1 μm Desmopressin), the “in vitro wound closure” value came to 48.9%. Moreover, the “cell kill in wound healing assay” value in the data set on DU145 cells [6] (DU145, DTX concentration of 100 μM) is reported as “significant cell kill”. The “cell invasion, matrigel invasion assay” value in the data set on PC3 cells [7] is “significantly inhibition of cell invasion”. In addition, the “proportion of cells in G2 phase” value with PC3 cells [8] (5 nM docetaxel, alone or with 1 nM/1 μM desmopressin) is “significant increase in the proportion of cells in G2 phase”. Moreover, the “cell proliferation / cell viability (MTS), relative to untreated control cells” value in the data set on PC3 cells [9] is reported as “decreased cell viability in a dose dependent manner”.
